Data from US11980620B2, “Compounds and methods for treatment of Diamond Blackfan anemia” (THE CHILDREN'S MEDICAL CENTER CORPORATION, priority 2017, dated 2024).

Experiments:
[1] = system: rps29+/- zebrafish with atg5 knockdown; test: atg5 morpholino knockdown in rps29+/- zebrafish, hemoglobin staining; format: in vivo; conditions: 1.6 ng atg5 morpholino; SMER28 1 μM
Procedure: FIGS. 11A-11C show effect of SMER28 on CD34+ progenitors. (FIG. 11A) Protein levels of LC3-I and LC3-II in control and SMER28 treated mice. GADPH is used as a loading control. […] (FIG. 11C) Atg5 morpholino treatment of rps29^+/− zebrafish.
(FIG. 13A) Induction of autophagy by SMER28 (40 μM) monitored by protein levels of p62, LC3-I, and LC3-II after 24 hours. Cells were also treated with 5-FU (100 nM) to induce autophagy, or inhibitor of transcription actinomycin D (ActD; 100 nM). (FIG. 13B) Induction of autophagy by SMER28 (40 μM) monitored by protein levels of p62, LC3-I, and LC3-II after 24 hours treatment with or without lysosomal blockade with bafilomycin A (200 nM for 4 hours). Untreated samples are shown at higher exposure, to capture dynamic changes in the LC3-II levels. Rapamycin (200 nM) is a positive control. LC3-II levels relative to GAPDH are quantitated on the right. (FIG. 13C) Erythroid differentiation of CD34-5F cells transduced with shRNAs for luciferase (LUC) or ATG5±SMER28. Representative flow plots and quantitation showing the number of erythroid cells induced by SMER28 (10 μM) normalized to DMSO. […] Representative images (left), and quantitation (right) with embryos grouped by high, medium, and low levels of benzidine staining. […]

CB CD34+ cells = format: in vivo, NSG mice
Procedure: (FIG. 10A) SMER28 rescues RBC output in rps29^+/− zebrafish embryos. The level of hemoglobin in the yolk sac was visualized 40hpf with benzidine staining. Images are representative of the proportion of embryos indicated (of total counted). (FIG. 10B) Quantitation of SMER28 rescue for a range of 0.1-1 μM, with embryos grouped by high, medium, and low levels of hemoglobin staining. (FIG. 10C) Peripheral blood (PB) RBC counts and hematocrit in mice with irradiation-induced anemia. Mice were treated with the PEG400-based vehicle containing DMSO (VEH) (n=11), 1 mg/kg Dex (sodium-phosphate) (n=13), or 10 mg/kg SMER28 (n=9) for 3 weeks, bled, and assessed. Data are combined from 3 independent experiments. (FIG. 10D) Erythroid cells as proportion of the human graft in mice transplanted with DBA CD34-5F progenitors, and treated as in (FIG. 1c). (FIG. 10E) Levels of human engraftment in NSG mouse bone marrow (BM) transplanted with CB CD34^+ cells. Mice were treated with DMSO plus vehicle (VEH) (n=10), 1 mg/kg Dex (sodium-phosphate) (n=6), or 2 mg/kg SMER28 (n=11) for 4 weeks. (FIG. 10F) The proportion of erythroid, myeloid, and lymphoid (B cells) lineages within the human graft in vehicle- and SMER28-treated mice transplanted with CB CD34^+ cells. Only the effect on the erythroid lineage was significant. Data in FIGS. 10E-10G are pooled from 2 independent experiments. For all panels, *p<0.05, * *p<0.01.
Drug treatments. SMER28 was purchased from Tocris and diluted in 10 mM aliquots in DMSO. The final concentration for CD34-5F and CB CD34^+erythroid treatments was 0.2-10 μM as indicated in the text. The final concentration for K562 cell treatments was 20-40 μM. Ferric citrate (1-50 μM) and deferoxamine (100-200 μM) (Sigma) were dissolved in PBS and added on days 0-4 of “expansion” culture, and washed off prior to erythroid stage I (days 4-9) differentiation. For in vivo experiments, SMER28 aliquots were diluted in vehicle solution: 30% PEG-400, 5% propylene glycol, and 0.5% Tween-80. Dosing for human xenograft experiments was 2 mg/kg; for mouse models 10-20 mg/kg. Dexamethasone was purchased as Dex-sodium phosphate (DexSP) water-soluble formulation (Santa Cruz), and diluted in PBS vehicle (1 mg/kg). NSG mice were sub-lethally irradiated at 275 rads, and administered 100 μl of drug or vehicle by oral gavage daily.

p21 = p21 levels in CD34+ cells of DBA patient derived erythroid cell population; format: cell-based, human; conditions: 1.5 μM; in vitro
Description: Accordingly, in another embodiment, an autophagy activator as disclosed herein can be administered to a subject according to the methods as disclosed herein in an effective dose to decrease the levels of p21 expression in CD34+ cells present in an erythroid cell population obtained from the subject by at least about 1%, at least about 2%, at least about 3%, at least about 5%, at least about 10%, at least about 15%, least about 20%, at least about 30%, at least about 40%, at least about 50%, at least about 60%, at least about 70%, at least about 80%, at least about 90%, at least about 95%, at least about 98%, at least about 99%, or more than 99%, as compared to in the absence of an autophagy activator.

C=CCNc1ncnc2ccc(Br)cc12 [SMER28, 6-Bromo-N-2-propenyl-4-quinazolinam]
rescue of erythropoiesis after atg5 knockdown [1]: abolished
distribution of myeloid and lymphoid lineages in human graft (CB CD34+ cells; 2 mg/kg SMER28 for 4 weeks): did not affect
erythroid contribution to human graft (RBCs as proportion of human graft) (CB CD34+ cells; 2 mg/kg SMER28 for 4 weeks, vehicle 5.5%, p=0.05): 13.0%
human chimerism in bone marrow (CB CD34+ cells; 2 mg/kg for 4 weeks, ns vs vehicle): 25.2%
levels of p21 in CD34+ cells (p21): decreased
